Literature values, collected in patent US6503745B1, “Cyclopentane and cyclopentene compounds and use for detecting influenza virus” (priority 1998, dated 2003).
Read-outs that look alike come from different tables or passages of the source.

Key:
[1] = tested on: influenza neuraminidase
[2] = tested on: influenza; settings: in animals
[3] = tested on: influenza; settings: in human volunteers

Structure (SMILES) | binder of influenza neuraminidase [1] | in vivo antiviral activity [2] | in vivo antiviral activity [3]
CCC(CC)O[C@@H]1C=C(C(=O)O)C[C@H](N)[C@H]1NC(C)=O [GS 4071, (3R,4R,5S)-4-acetamido-5-amino-3-(1-ethylpropoxy)-1-cyclohexene-1-carboxylic acid] | potent binders |  | 
CC(=O)NC1C(NC(=N)N)C=C(C(=O)O)OC1[C@H](O)[C@H](O)CO (stereo partly shown) [GG167, 2,3-didehydro-2,4-dideoxy-4-guanidinyl-N-acetylneuraminic acid] | potent binder | potent in vivo antiviral activity | potent in vivo antiviral activity
